Holding throughout (assay): Cell growth inhibition, CellTiter-Glo, 72 h
What all share (type): cell-based
(In general: ATP-based viability assays read luminescence as a measure of living cells.)

The test system of one experiment is vCap cells. As to conditions: Homo sapiens, 72 h culture, mean of N=2. The gist of the method: (§1)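 Cells seeded at 5×10^3/well in RPMI-1640 with 10% FBS, compound added next day at 0.5% DMSO final, 72 h at 37°C. CellTiter-Glo luminescence read; % inhibition normalised to 0.5% DMSO (0%) and 1% Tween 20 (100%), plotted against concentration in nM; mean ± SEM, N=2.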

The test system of the next experiment is MM1S cells. As to conditions: Homo sapiens, MM1.S, 72 h culture, mean of N=2. The gist of the method:
as §1

The test system of another experiment is OPM-2 cells. As to conditions: Homo sapiens, 72 h culture, mean of N=2. The gist of the method:
as §1

The test system of the next experiment is 22RV1 cells. The conditions noted are these: Homo sapiens, 72 h culture, mean of N=2. Summed up: as §1

pIC50: −log10 of the molar value.

Usually pIC50 stands for the IC50 on a negative log10 scale, so that one unit is a factor of ten. For the compound `CC(=O)N1Cc2cc(C3CCN(CC4CCN(c5ccc6c(c5)C(=O)N(C5CCC(=O)NC5=O)C6=O)CC4)CC3)cc(N3CCCc4cc(-c5cnn(C)c5)c(C(F)F)cc43)c2C1` (stereo not shown) [Compound 2085], the pIC50 is 8.70 in the experiment with vCap cells, 8.70 in the experiment on MM1S cells, 8.70 with OPM-2 cells and 8.40 with 22RV1 cells.

For `CC(=O)N1Cc2cc([C@H]3CC[C@H](NC(=O)CCl)CC3)cc(N3CCCc4cc(-c5cnn(C)c5)c(C(F)F)cc43)c2C1` [Compound 1362], the pIC50 with vCap cells was 8.22; with MM1S cells it was 8.52; in the experiment on OPM-2 cells, 8.70; in the experiment on 22RV1 cells, 7.29.

Regarding `C=CS(=O)(=O)N1CCC(n2nc(N3CCCc4cc(-c5cnn(C)c5)c(C(F)F)cc43)c3c2CCN(C(=O)NC)C3)CC1` [Compound 1369, 3-(7-(difluoromethyl)-6-(1-methyl-1H-pyrazol-4-yl)-3,4-dihydroquinolin-1(2H)-yl)-N-methyl-1-(1-(vinylsulfonyl)piperidin-4-yl)-1,4,6,7-tetrahydro-5H-pyrazolo[4,3-c]pyridine-5-carboxamide], the pIC50 in the experiment on vCap cells is 9.00; with MM1S cells, 9.00; in the experiment with OPM-2 cells it was 9.40; in the experiment with 22RV1 cells, 8.40.

In the case of `C=CS(=O)(=O)N1CCC(n2nc(N3CCCc4cc(-c5cnn(C)c5)c(C#N)cc43)c3c2CCN(C(=O)NC)C3)CC1` [Compound 1379, 3-[7-cyano-6-(1-methylpyrazol-4-yl)-3,4-dihydro-2H-quinolin-1-yl]-1-[1-(vinylsulfonyl)piperidin-4-yl]-N-methyl-4H,6H,7H-pyrazolo[4,3-c]pyridine-5-carboxamide], the pIC50 was 8.10 in the experiment on vCap cells, 8.30 with MM1S cells, 8.30 in the experiment on OPM-2 cells and 7.55 with 22RV1 cells.

With `CNC(=O)N1CCc2c(c(N3CCCc4cc(-c5cnn(C)c5)c(C(F)F)cc43)nn2C2CCN(C(=O)CCl)CC2)C1` [Compound 1377, 1-(1-(2-chloroacetyl)piperidin-4-yl)-3-(7-(difluoromethyl)-6-(1-methyl-1H-pyrazol-4-yl)-3,4-dihydroquinolin-1(2H)-yl)-N-methyl-1,4,6,7-tetrahydro-5H-pyrazolo[4,3-c]pyridine-5-carboxamide], the pIC50 in the experiment with vCap cells is 9.30; in the experiment with MM1S cells, 9.52; with OPM-2 cells it was 9.70; in the experiment on 22RV1 cells, 8.40.

Consider `C=CS(=O)(=O)N[C@H]1CC[C@H](n2nc(N3CCCc4cc(-c5cnn(C)c5)c(C(F)F)cc43)c3c2CCN(C(C)=O)C3)CC1` [Compound 1387, N-((1r,4r)-4-(5-acetyl-3-(7-(difluoromethyl)-6-(1-methyl-1H-pyrazol-4-yl)-3,4-dihydroquinolin-1(2H)-yl)-4,5,6,7-tetrahydro-1H-pyrazolo[4,3-c]pyridin-1-yl)cyclohexyl)ethenesulfonamide], for which the pIC50 in the experiment on vCap cells was 8.52; in the experiment with MM1S cells, 8.52; with OPM-2 cells, 9.00; in the experiment with 22RV1 cells, 7.74.

Turning to `C=CS(=O)(=O)N[C@H]1CC[C@@H](c2cc3c(c(N4CCCc5cc(-c6cnn(C)c6)c(C(F)F)cc54)c2)CN(C(=O)NC)CC3)CC1` [Compound 1366, 8-(7-(difluoromethyl)-6-(1-methyl-1H-pyrazol-4-yl)-3,4-dihydroquinolin-1(2H)-yl)-N-methyl-6-((1s,4s)-4-(vinylsulfonamido)cyclohexyl)-3,4-dihydroisoquinoline-2(1H)-carboxamide], the pIC50 is 7.55 in the experiment on vCap cells, 7.62 in the experiment with MM1S cells, 8.30 with OPM-2 cells and 6.88 with 22RV1 cells.

As to `C=CS(=O)(=O)N1CCC(n2c([C@@H]3CCCC(=O)N3c3ccc(F)c(F)c3)nc3cc(-c4c(C)noc4C)ccc32)CC1` [Compound 1373, (S)-1-(3,4-difluorophenyl)-6-(5-(3,5-dimethylisoxazol-4-yl)-1-(1-(vinylsulfonyl)piperidin-4-yl)-1H-benzo[d]imidazol-2-yl)piperidin-2-one], the pIC50 in the experiment on vCap cells is 7.29; in the experiment with MM1S cells, 7.36; with OPM-2 cells, 7.92; with 22RV1 cells, 6.68.

Regarding `CNC(=O)N1CCc2c(c(N3CCCc4cc(-c5cnn(C)c5)c(C(F)F)cc43)nn2[C@H]2CC[C@H](N3C(=O)C=CC3=O)CC2)C1` [Compound 1383, 3-(7-(difluoromethyl)-6-(1-methyl-1H-pyrazol-4-yl)-3,4-dihydroquinolin-1(2H)-yl)-1-((1r,4r)-4-(2,5-dioxo-2,5-dihydro-1H-pyrrol-1-yl)cyclohexyl)-N-methyl-1,4,6,7-tetrahydro-5H-pyrazolo[4,3-c]pyridine-5-carboxamide], the pIC50 is 6.97 in the experiment on vCap cells, 6.91 in the experiment with MM1S cells, 7.20 with OPM-2 cells and 6.30 with 22RV1 cells.

Take `C=CS(=O)(=O)N1CCC(c2cc3c(c(N4CCCc5cc(-c6cnn(C)c6)c(C(F)F)cc54)c2)CN(C(=O)NC)C3)CC1` [Compound 1391, 4-(7-(difluoromethyl)-6-(1-methyl-1H-pyrazol-4-yl)-3,4-dihydroquinolin-1(2H)-yl)-N-methyl-6-(1-(vinylsulfonyl)piperidin-4-yl)isoindoline-2-carboxamide]: the pIC50 is 6.72 in the experiment with vCap cells, 6.93 with MM1S cells, 7.48 with OPM-2 cells and 6.36 with 22RV1 cells.

Consider `C=CS(=O)(=O)N[C@H]1CC[C@H](c2cc3c(c(N4CCCc5cc(-c6cnn(C)c6)c(C(F)F)cc54)c2)CN(C(=O)NC)CC3)CC1` [Compound 1367, 8-(7-(difluoromethyl)-6-(1-methyl-1H-pyrazol-4-yl)-3,4-dihydroquinolin-1(2H)-yl)-N-methyl-6-((1r,4r)-4-(vinylsulfonamido)cyclohexyl)-3,4-dihydroisoquinoline-2(1H)-carboxamide], for which the pIC50 is 7.34 in the experiment with vCap cells, 7.48 in the experiment with MM1S cells, 8.40 with OPM-2 cells and 6.87 in the experiment on 22RV1 cells.

For `CC(=O)N1Cc2cc([C@H]3CC[C@@H](CN4Cc5cc6c(cc5C4)C(=O)N(C4CCC(=O)NC4=O)C6=O)CC3)cc(N3CCCc4cc(-c5cnn(C)c5)c(C(F)F)cc43)c2C1` (relative stereo) [Compound 2082, 6-(((1s,4s)-4-(2-acetyl-7-(7-(difluoromethyl)-6-(1-methyl-1H-pyrazol-4-yl)-3,4-dihydroquinolin-1(2H)-yl)isoindolin-5-yl)cyclohexyl)methyl)-2-(2,6-dioxopiperidin-3-yl)-6,7-dihydropyrrolo[3,4-f]isoindole-1,3(2H,5H)-dione], the pIC50 in the experiment with vCap cells is 7.89; in the experiment with MM1S cells, 7.60; in the experiment on OPM-2 cells it was 8.40; with 22RV1 cells, 7.33.

As to `CC(=O)N1Cc2cc([C@H]3CC[C@H](CN4Cc5cc6c(cc5C4)C(=O)N(C4CCC(=O)NC4=O)C6=O)CC3)cc(N3CCCc4cc(-c5cnn(C)c5)c(C(F)F)cc43)c2C1` (relative stereo) [Compound 2083, 6-(((1r,4r)-4-(2-acetyl-7-(7-(difluoromethyl)-6-(1-methyl-1H-pyrazol-4-yl)-3,4-dihydroquinolin-1(2H)-yl)isoindolin-5-yl)cyclohexyl)methyl)-2-(2,6-dioxopiperidin-3-yl)-6,7-dihydropyrrolo[3,4-f]isoindole-1,3(2H,5H)-dione], the pIC50 is 7.24 in the experiment with vCap cells, 7.46 in the experiment on MM1S cells, 7.89 with OPM-2 cells and below 5.00 in the experiment with 22RV1 cells.

Source of the values: patent EP4813980A1, “EP300/CBP REGULATOR, AND PREPARATION METHOD THEREFOR AND USE THEREOF” (Miracure Biotechnology Limited, priority 2023, dated 2025).
